Measurements from PMC12040169 (PLOS Biology, 2025).

assay: in vitro; conditions: human, hela cells

Row | SMILES | viability at 28.5 h, 10 µM [%]
1 | CC(C)CN(/C=N/c1nc(OC(=O)N(c2ccccc2)c2ccccc2)nc2c1ncn2C1CC(O)C(CO)O1)CC(C)C (stereo not drawn) [CBK201170] | 93
2 | Nc1ncnc2c1ccn2[C@@H]1O[C@H](CO)[C@H](O)C1O (stereo partly drawn) [CBK201176] | 0

same assay, conditions: human, hela cells, % viability

Row | SMILES | viability at 28.5 h, 10 µM [%]
3 | OC[C@H]1O[C@@H](n2cnc3c(Cl)ncnc32)C[C@H]1O [CBK201167] | 99.6
4 | COC1C(O)C(CO)OC1n1cc(F)c(=S)[nH]c1=O (stereo not drawn) [CBK201168] | 96
5 | Nc1nc2c(ncn2[C@@H]2O[C@H](CO)[C@H](O)C2O)c(=O)[nH]1 (stereo partly drawn) [CBK201173] | 96
6 | CN(C)/C=N/c1ncc2ncn(C3CC(O)C(CO)O3)c2n1 (stereo not drawn) [CBK201175] | 90.8
7 | COc1nc(N)nc2c1ccn2C1CC(O)C(CO)O1 (stereo not drawn) [CBK201177] | 98.6
8 | CC#Cc1cn([C@H]2C[C@@H](O)[C@@H](CO)O2)c(=O)[nH]c1=O [CBK201182] | 104
9 | Cc1cc(C)c(Oc2nc(=O)n([C@H]3C[C@@H](O)[C@@H](CO)O3)cc2F)c(C)c1 [CBK201184] | 96.4
10 | Cc1nn([C@H]2C[C@@H](O)[C@@H](CO)O2)c(=O)[nH]c1=O [CBK201185] | 97.3
11 | O=c1[nH]cnc2c1ncn2[C@@H]1O[C@H](CO)[C@H](O)C1O (stereo partly drawn) [CBK201186] | 98.3
12 | CCNc1nc2c(ncn2C2CC(O)C(CO)O2)c(=O)[nH]1 (stereo not drawn) [CBK201189] | 99.6
13 | Nc1nc2c([C@H]3C[C@@H](O)[C@@H](CO)O3)c[nH]c2c(=O)[nH]1 [CBK201194] | 102
14 | Nc1cc2c(ncn2[C@@H]2C[C@@H](O)[C@@H](CO)O2)c(=O)[nH]1 [CBK201196] | 88.1
15 | Cc1cn([C@H]2C[C@@H](O)[C@@H](CI)O2)c(=O)[nH]c1=O [CBK201197] | 96.9
16 | CC(C)CNc1nc2c(ncn2[C@H]2C[C@@H](O)[C@@H](CO)O2)c(=O)[nH]1 [CBK201198] | 94.8
17 | Cc1cn(C2CC(O)C(CO)O2)c(=O)nc1SCCC#N (stereo not drawn) [CBK201201] | 97.5
18 | CC(C)C(=O)Nc1nc2c([nH]c(=O)n2[C@H]2C[C@@H](O)[C@@H](CO)O2)c(=O)[nH]1 [CBK201202] | 98.4
19 | N#Cc1cn([C@@H]2O[C@H](CO)[C@H](O)C2O)c2ncnc(N)c12 (stereo partly drawn) [CBK201204] | 18
20 | C#Cc1cn([C@H]2C[C@@H](O)[C@@H](CO)O2)c(=O)[nH]c1=O [CBK201207] | 87.8
21 | O=c1ccn([C@@H]2O[C@H](CO)[C@H](O)C2O)c(=S)[nH]1 (stereo partly drawn) [CBK201210] | 91.8
22 | Nc1nc2c(ncn2[C@H]2C[C@@H](O)[C@@H](CO)O2)c(=S)[nH]1 [CBK201213] | 59.3
23 | Cn1c(N)nc2c(ncn2[C@H]2C[C@@H](O)[C@@H](CO)O2)c1=O [CBK201215] | 105

Row | SMILES | viability at 28.5 h, 10 µM [%]
24 | Nc1nc2nn([C@H]3C[C@@H](O)[C@@H](CO)O3)cc2c(=O)[nH]1 [CBK201218] | 90.3
25 | Nc1ncnc2c1nc(N)n2[C@H]1C[C@@H](O)[C@@H](CO)O1 [CBK201222] | 101
26 | Nc1nc2c(cnn2[C@H]2C[C@@H](O)[C@@H](CO)O2)c(=O)[nH]1 [CBK201223] | 101
27 | Nc1ncnc2c1nnn2[C@@H]1O[C@H](CO)[C@H](O)C1O (stereo partly drawn) [CBK201228] | 30
28 | O=[N+]([O-])c1ccn(C2CC(O)C(CO)O2)c1 (stereo not drawn) [CBK201229] | 83.7
29 | O=C(/C=C/c1cn(C2OC(CO)C(O)C2O)c(=O)[nH]c1=O)NCCCCCCNC(=O)C(F)(F)F (stereo not drawn) [CBK201231] | 99.1
30 | Cc1cn([C@H]2C[C@@H](O)[C@@H](CO)O2)c(=O)nc1-n1cncn1 [CBK201235] | 82.9
31 | O=c1[nH]c(=O)n([C@H]2C[C@@H](O)[C@@H](CO)O2)cc1CCO [CBK201239] | 99.6
32 | Nc1ncnc2c1nc(Br)n2[C@H]1C[C@@H](O)[C@@H](CO)O1 [CBK201240] | 103
33 | COC1C(O)C(CO)OC1n1cnc2c(N)nc(N)nc21 (stereo not drawn) [CBK201241] | 95.4
34 | O=c1[nH]cnc2c([C@@H]3O[C@H](CO)[C@H](O)C3O)n[nH]c12 (stereo partly drawn) [CBK201242] | 98.1
35 | OC[C@H]1O[C@@H](n2cnc3cncnc32)C[C@H]1O [CBK201243] | 113
36 | COC(=O)/C=C/c1cn(C2CC(O)C(CO)O2)c(=O)[nH]c1=O (stereo not drawn) [CBK201244] | 105
37 | O=c1[nH]cnc2c1cnn2[C@@H]1O[C@H](CO)[C@H](O)C1O (stereo partly drawn) [CBK201245] | 95.8
38 | Nc1ncc([C@H]2C[C@@H](O)[C@@H](CO)O2)c(=O)[nH]1 [CBK201246] | 79.8
39 | Nc1nc2c(nc(OCc3ccccc3)n2C2OC(CO)C(O)C2O)c(=O)[nH]1 (stereo not drawn) [CBK201247] | 80.6
40 | O=C(Nc1ncnc2c1[nH]c(=O)n2C1CC(O)C(CO)O1)c1ccccc1 (stereo not drawn) [CBK201250] | 94.6
41 | COC1C(O)C(CO)OC1n1cc(C)c(=O)[nH]c1=O (stereo not drawn) [CBK201251] | 103
42 | Nc1ncnc2c1nc1n2[C@H]2C[C@@H](O)[C@@H](C1)O2 [CBK201254] | 102
43 | Nc1ncnc2c1ccn2[C@H]1C[C@@H](O)[C@@H](CO)O1 [CBK201258] | 95.5
44 | Nc1ncnc2c1nc1n2[C@H]2C[C@@H](O)[C@H](O2)C1=O [CBK201259] | 98.2

Row | SMILES | viability at 28.5 h, 10 µM [%]
45 | N#CCCSc1ccn(C2CC(O)C(CO)O2)c(=O)n1 (stereo not drawn) [CBK201261] | 97.9
46 | Nc1cccc(-c2cn([C@H]3C[C@@H](O)[C@@H](CO)O3)c(=O)[nH]c2=O)c1 [CBK201262] | 94.4
47 | OC[C@H]1OCC[C@H]1O [CBK201263] | 113
48 | OC[C@H]1O[C@@H](n2cnc3c(Cl)ncnc32)C(O)[C@H]1O (stereo partly drawn) [CBK201266] | 99.1
49 | Cc1cn([C@@H]2O[C@H](CO)[C@H](O)C2O)c(=O)nc1N (stereo partly drawn) [CBK201268] | 105
50 | Nc1nc2c([nH]c(=O)n2[C@H]2C[C@@H](O)[C@@H](CO)O2)c(=O)[nH]1 [CBK201269] | 94.7
51 | O=C(O)/C=C/c1cn([C@@H]2O[C@H](CO)[C@H](O)C2O)c(=O)[nH]c1=O (stereo partly drawn) [CBK201270] | 96.7
52 | Cn1cc([C@H]2C[C@@H](O)[C@@H](CO)O2)c(=O)n(C)c1=O [CBK201272] | 97.3
53 | OC[C@H]1O[C@@H](n2cnc3c(Cl)nccc32)C[C@H]1O [CBK201273] | 88.5
54 | Nc1ccn([C@H]2C[C@@H](O)[C@@H](CO)O2)c(=O)n1 [CBK201274] | 96.2
55 | Nc1nc(N)c2ncn([C@@H]3O[C@H](CO)[C@H](O)C3O)c2n1 (stereo partly drawn) [CBK201275] | 102
56 | CN(C)/C=N/c1nc2c(ccn2C2CC(O)C(CO)O2)c(=O)[nH]1 (stereo not drawn) [CBK201276] | 107
57 | Cn1c(=O)ccn([C@@H]2O[C@H](CO)[C@H](O)C2O)c1=O (stereo partly drawn) [CBK201281] | 104
58 | Cc1ccc(S(=O)(=O)OC[C@H]2O[C@@H](n3ccc(=O)[nH]c3=O)C[C@H]2O)cc1 [CBK201283] | 95.7
59 | Nc1ncnc2c1[nH]c(=O)n2[C@H]1C[C@@H](O)[C@@H](CO)O1 [CBK201284] | 98.3
60 | Cc1cc2cn([C@H]3C[C@@H](O)[C@@H](CO)O3)c(=O)nc2o1 [CBK201287] | 96
61 | O=C(Nc1ncnc2c1ccn2C1CC(O)C(CO)O1)c1ccccc1 (stereo not drawn) [CBK201289] | 96.3
62 | Nc1nc(Cl)c2ncn([C@@H]3O[C@H](CO)[C@H](O)C3O)c2n1 (stereo partly drawn) [CBK201291] | 81
63 | Nc1nc2c(ncn2[C@H]2C[C@@H](O)[C@@H](CO)O2)c(=O)[nH]1 [CBK201294] | 98.1
64 | O=C(NC/C=C/c1cn(C2OC(CO)C(O)C2O)c(=O)[nH]c1=O)C(F)(F)F (stereo not drawn) [CBK201298] | 104
65 | C=CCOc1nc2c(=O)[nH]c(/N=C/N(C)C)nc2n1C1CC(O)C(CO)O1 (stereo not drawn) [CBK201299] | 93.3

Row | SMILES | viability at 28.5 h, 10 µM [%]
66 | CN1N=C(N)c2cn([C@@H]3O[C@H](COP(=O)(O)O)[C@H](O)C3O)c3ncnc1c23 (stereo partly drawn) [CBK201301] | 73.9
67 | Nc1ncc2ncn([C@H]3C[C@@H](O)[C@@H](CO)O3)c2n1 [CBK201303] | 102
68 | Nc1ncnc2c1nc1n2[C@@H]2O[C@@H]([C@H](O)C2O)[C@H]1O (stereo partly drawn) [CBK201305] | 98.1
69 | Nc1nc(=O)n([C@@H]2O[C@H](CO)[C@H](O)C2O)cc1I (stereo partly drawn) [CBK201306] | 107
70 | Cc1cn([C@H]2C[C@@H](O)[C@@H](CO)O2)c(=O)nc1N [CBK201307] | 100
71 | Nc1nc(Cl)c2ccn([C@H]3C[C@@H](O)[C@@H](CO)O3)c2n1 [CBK201309] | 92.4
72 | Cn1cnc2c(ncn2C2OC(CO)C(O)C2O)c1=N (stereo not drawn) [CBK201313] | 102
73 | COc1nc(N)nc2c1ncn2C1CC(O)C(CO)O1 (stereo not drawn) [CBK201314] | 89.4
74 | Cc1cn([C@H]2C[C@@H](O)[C@@H](CN)O2)c(=O)[nH]c1=O [CBK201315] | 96.2
75 | O=c1ccn([C@H]2C[C@@H](O)[C@@H](CO)O2)c(=O)[nH]1 [CBK201316] | 98.3
76 | CN(C)/C=N/c1nc2c(nc(Br)n2C2CC(O)C(CO)O2)c(=O)[nH]1 (stereo not drawn) [CBK201319] | 84.7
77 | Cc1cn([C@H]2C[C@@H](O)[C@@H](CO)O2)c(=O)n(CCC#N)c1=O [CBK201322] | 98.4
78 | Nc1nc(=O)[nH]c2c1ncn2[C@H]1C[C@@H](O)[C@@H](CO)O1 [CBK201323] | 86
79 | COC1C(O)C(CO)OC1n1cnc2c(=O)[nH]c(N)nc21 (stereo not drawn) [CBK201324] | 96.2
80 | Nc1ncnc2c1cnn2[C@H]1C[C@@H](O)[C@@H](CO)O1 [CBK201325] | 98
81 | Nc1ncn([C@H]2C[C@@H](O)[C@@H](CO)O2)c(=O)n1 [CBK201329] | 92.8
82 | CN(C)/C=N/c1nc(=O)n([C@H]2CC(O)[C@@H](CO)O2)cc1/C=C/C(=O)NCCCCCCNC(=O)C(F)(F)F (stereo partly drawn) [CBK201330] | 97.1
83 | Nc1nc2c(nc(Br)n2[C@H]2C[C@@H](O)[C@@H](CO)O2)c(=O)[nH]1 [CBK201333] | 108
84 | CCOc1nc(=O)c(C)cn1C1CC(O)C(CO)O1 (stereo not drawn) [CBK201334] | 96.5
